Test results published in patent publication US20250263416A1, “SPPL2a INHIBITORS” (Incyte Corporation, priority 2024, published 2025).
“Also recorded” adds a separate entry of the source.

Experiments:
[1] = test system: Imiquimod (IMQ)-induced psoriasis mouse model; test: Imiquimod (IMQ)-induced psoriasis mouse model; assay type: in vivo, BALB/c female mice; conditions: 15 mg/kg PO BID
Method: A comparative study was performed to evaluate the efficacy of the deuterated-inhibitor Example 1 to Example A in the mouse model of psoriasis. Briefly, BALB/c female mice (7-8 week age) were shaved on the dorsal skin and 62.5 mg of IMQ cream was applied daily until day 9. Simultaneously, 15 mg of IMQ cream was applied on one ear daily until day 9. Example 1 and Example A were given orally (PO) at 15 mg/kg, BID. Mice were monitored and clinical signs of psoriasis were recorded (PSI score), both on the dorsal skin (erythema, scaling & thickness) and on the IMQ-applied ear (thickness). All data is presented as mean+SEM. For comparison of more than two groups, ANOVA was used. Pearson product moment correlation was used to test for correlations. All statistical analysis was performed using GraphPad Prism™ 10.

[2] = test system: MRL/MpJ-Faslpr/J mice, lupus-like disease; test: Mouse model of systemic lupus (SLE); assay type: in vivo
Method: A mouse model of SLE was used to evaluate the treatment potential of SPPL2a inhibition by Example A in vivo in female mice aged 8 weeks. The MRL/MpJ-Faslpr/J (JAX stock #000485) mice used in this study develop a spontaneously accelerated and aggressive lupus-like disease characterized by immune-mediated damage to the organs, and by the presence of circulating auto-Abs against dsDNA, which are serological hallmarks of SLE. Mice were prophylactically treated orally with Example A at 15 mg/kg and 30 mg/kg dose, twice daily after allotment into different groups starting at week 10. As a control, cyclophosphamide at 25 mg/kg dose was given intraperitoneally, twice weekly. Mice were monitored weekly for the clinical sign development, proteinuria, skin lesions and lymphadenopathy. The study was terminated by euthanizing mice at 20 weeks of age following 10 weeks of dosing. All data is presented as mean+SEM. For comparison of more than two groups, ANOVA was used. All statistical analysis was performed using GraphPad Prism™10.
Inflammatory cytokine levels (TNFα and IFNγ) and murine immunoglobulin levels (Ig) were measured using MSD® multi-spot assay kits.

[3] = target: T1, human SPPL2a (Homo sapiens, UniProt Q8TCT8); test: Western blot assay of TNFα-GFP cleavage in U2OS cells expressing human SPPL2a; assay type: cell-based; conditions: SPPL2a-U2OS reporter cells, 24 h
T1 construct: expressed in transfected cells; host or cells: U2OS (SPPL2a reporter cell line)
T1 sequence (Q8TCT8 26-520): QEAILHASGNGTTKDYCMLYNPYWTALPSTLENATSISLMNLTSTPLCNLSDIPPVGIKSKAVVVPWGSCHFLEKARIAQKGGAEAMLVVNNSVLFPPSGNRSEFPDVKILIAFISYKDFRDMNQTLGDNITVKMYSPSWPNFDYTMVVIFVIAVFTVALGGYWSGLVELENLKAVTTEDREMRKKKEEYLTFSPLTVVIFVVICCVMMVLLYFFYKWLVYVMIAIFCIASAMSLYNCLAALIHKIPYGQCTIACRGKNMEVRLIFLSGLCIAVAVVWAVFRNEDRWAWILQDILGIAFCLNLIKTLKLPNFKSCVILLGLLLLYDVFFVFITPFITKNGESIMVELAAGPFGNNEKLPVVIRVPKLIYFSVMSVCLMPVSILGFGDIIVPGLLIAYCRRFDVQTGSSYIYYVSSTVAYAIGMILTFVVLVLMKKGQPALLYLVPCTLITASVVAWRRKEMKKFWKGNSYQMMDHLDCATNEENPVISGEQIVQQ
Method: To confirm the cleavage of TNF-α in the U2OS cells that express human SPPL2a, a western blot assay was performed. The same cell line used for the imaging assays were used; these cells express human SPPL2a constitutively and an eGFP-labelled TNFα (aa 1-76) NTF substrate under a doxycycline promotor. In the presence of SPPL2a activity, TNFα-GFP is cleaved at the NTF, resulting in a single 54-56 kDa band (lower MW). If SPPL2a activity is inhibited, TNFα GFP processing is abrogated resulting in a higher molecular weight band (60-62 kDa; complete inhibition) and or both 54-56 kDa and 60-62 kDa bands (incomplete inhibition, smeared appearance) on the blot. Both Example 1 and Example A were added at indicated concentrations, and cells were incubated for 24 h with the inhibitors. Total cell lysated were prepared in ice cold-1X RIPA buffer containing protease inhibitor cocktail (AKR-190, Cell BioLabs). Lysates were collected and quantified for the total protein on NanoDrop using BCA kit (23227, Thermo Scientific). […] To detect cleaved and un-cleaved TNFα-GFP fragments, anti-GFP antibody (AF4240, R&D Biosystems) was used as a primary antibody and detected using anti-goat detection module (DM-006, ProteinSimple) according to the manufacturer's protocol. Data was analyzed using ProteinSimple compass software.

[4] = test system: MoDCs; test: DC-maturation assay (monocyte-derived dendritic cells from human PBMCs); assay type: cell-based; conditions: 24 h
Method: Dendritic cells are crucial players in the antigen presentation process and inflammation. […] To validate the functional relevance of SPPL2a inhibitor, a DC-maturation assay was utilized. Human PBMCs were isolated from fresh blood using Histoplaque gradients and plated overnight at 37° C. to allow monocytes to adhere. Non-adherent cells were washed off the following day and DC-differentiation media containing GM-CSF and IL-4 was added and incubated for 5 d. Immature MoDCs were separated and washed. A cocktail of maturation media with SPPL2a inhibitor (at indicated concentrations) was added to the wells and cells were incubated for 24 h. Supernatants were collected and processed to measure TNFα and IL-12 by ELISA. All data is presented as mean+SEM. For comparison of more than two groups, ANOVA was used. All statistical analysis was performed using GraphPad Prism™ 10.

[5] = both doses tested (15 and 30 mg/kg orally twice daily)
[6] = both treated groups (15 and 30 mg/kg BID)

CNC(=O)c1nc(C)c(C(=O)NC[C@@H](C)C(=O)N[C@@H]2C(=O)N3CCCN3Cc3ccccc32)s1 [Example A, N^2,4-dimethyl-N^5—((R)-2-methyl-3-oxo-3-(((S)-11-oxo-2,3,10,11-tetrahydro-1H,5H-benzo[d]pyrazolo[1,2-a][1,2]diazepin-10-yl)amino)propyl)thiazole-2,5-dicarboxamide]
dorsal PSI scores [1]: alleviate
ear thickness measurements [1]: alleviate
clinical signs of psoriasis disease ([1]; compared to vehicle group): significantly reduced
Mouse IL-12 level in plasma ([1]; terminal day): significant reduction
Mouse TNFα level in plasma ([1]; terminal day): significant reduction
TNFα levels in mouse serum ([2]; 15 mg/kg BID): No significant changes
Levels of IgA ([2]; 15 mg/kg dose): significantly down regulated
kidney pathology ([2]; 15 mg/kg, compared to vehicle control): did not exhibit a test article-related change compared to the vehicle control except in the blood vessels
TNFα levels in mouse serum ([2]; 30 mg/kg BID): significantly inhibits
antibody production in mouse serum ([2]; 30 mg/kg BID): significantly inhibits
Levels of IgA ([2]; 30 mg/kg dose): trended lower
kidney pathology: membranoproliferative nephritis, tubular dilation and casts, interstitial inflammation, fibrosis, blood vessel necrosis, and inflammation ([2]; 30 mg/kg oral twice daily): statistically significant decrease
Serum IFNγ levels ([2]; both doses (15 and 30 mg/kg BID)): modest increase
proteinuria [2, 5]: effectively reduced; also recorded: Significant reduction
skin lesion formation / skin lesional scores [2, 5]: effectively reduced; also recorded: Significant reduction
IgG1 [2, 6]: significantly lower
IgG2a [2, 6]: significantly lower
IgG2b [2, 6]: significantly lower
IgG3 [2, 6]: significantly lower
IgM [2, 6]: significantly lower
anti ds-DNA antibody production ([2]; compared to vehicle control): significantly reduced
lymphadenopathy ([2]; highest dose tested): significantly reduced; also recorded: Significant reduction
TNFα-GFP cleavage inhibition (SPPL2a activity inhibition) [3]: SPPL2a activity inhibition; also recorded: Comparable and significant TNFα-GFP cleavage inhibition
IL-12 secretion ([4]; MoDC supernatants, ELISA): significantly decreased
TNFα secretion ([4]; MoDC supernatants, ELISA): significantly decreased
MoDC maturation ([4]; compared to the stimulation only condition): significantly decreased
